ChEMBL document CHEMBL1833895, “Synthesis and biological activity of desmethoxy analogues of coruscanone A” (Bioorg Med Chem Lett, 2011)

What was measured:
Candida albicans [1] = assay: Antifungal activity against Candida albicans ATCC 44859 after 48 hrs by microdilution method; format: functional; settings: ATCC 44859, 48 h
Candida albicans [2] = assay: Antifungal activity against Candida albicans ATCC 90028 after 24 hrs by microdilution method; format: functional; settings: ATCC 90028, 24 h
Candida albicans [3] = assay: Antifungal activity against Candida albicans ATCC 90028 after 48 hrs by microdilution method; format: functional; settings: ATCC 90028, 48 h
Candida parapsilosis [4] = assay: Antifungal activity against Candida parapsilosis ATCC 22019 after 24 hrs by microdilution method; format: functional; settings: Lodderomyces parapsilosis, ATCC 22019, 24 h
Candida parapsilosis [5] = assay: Antifungal activity against Candida parapsilosis ATCC 22019 after 48 hrs by microdilution method; format: functional; settings: Lodderomyces parapsilosis, ATCC 22019, 48 h
Pichia kudriavzevii [6] = assay: Antifungal activity against Candida krusei ATCC 6258 after 24 hrs by microdilution method; format: functional; settings: ATCC 6258, 24 h
Pichia kudriavzevii [7] = assay: Antifungal activity against Candida krusei ATCC 6258 after 48 hrs by microdilution method; format: functional; settings: ATCC 6258, 48 h
Pichia kudriavzevii [8] = assay: Antifungal activity against Candida krusei E28 after 24 hrs by microdilution method; format: functional; settings: E28, 24 h
Pichia kudriavzevii [9] = assay: Antifungal activity against Candida krusei E28 after 48 hrs by microdilution method; format: functional; settings: E28, 48 h
Candida tropicalis [10] = assay: Antifungal activity against Candida tropicalis 156 after 24 hrs by microdilution method; format: functional; settings: Candida tropicalis, 156, 24 h
Candida tropicalis [11] = assay: Antifungal activity against Candida tropicalis 156 after 48 hrs by microdilution method; format: functional; settings: Candida tropicalis, 156, 48 h
Nakaseomyces glabratus [12] = assay: Antifungal activity against Candida glabrata 20/I after 24 hrs by microdilution method; format: functional
Nakaseomyces glabratus [13] = assay: Antifungal activity against Candida glabrata 20/I after 48 hrs by microdilution method; format: functional
Clavispora lusitaniae [14] = assay: Antifungal activity against Candida lusitaniae 2446/I after 24 hrs by microdilution method; format: functional
Clavispora lusitaniae [15] = assay: Antifungal activity against Candida lusitaniae 2446/I after 48 hrs by microdilution method; format: functional
Trichosporon asahii [16] = assay: Antifungal activity against Trichosporon asahii 1188 after 24 hrs by microdilution method; format: functional; settings: Trichosporon asahii, 1188, 24 h
Trichosporon asahii [17] = assay: Antifungal activity against Trichosporon asahii 1188 after 48 hrs by microdilution method; format: functional; settings: Trichosporon asahii, 1188, 48 h
Aspergillus fumigatus [18] = assay: Antifungal activity against Aspergillus fumigatus 231 after 24 hrs by microdilution method; format: functional, organism-based; settings: Aspergillus fumigatus, 231, 24 h
Aspergillus fumigatus [19] = assay: Antifungal activity against Aspergillus fumigatus 231 after 48 hrs by microdilution method; format: functional, organism-based; settings: Aspergillus fumigatus, 231, 48 h
Lichtheimia corymbifera [20] = assay: Antifungal activity against Absidia corymbifera 272 after 24 hrs by microdilution method; format: functional, organism-based; settings: Lichtheimia corymbifera, 272, 24 h
Lichtheimia corymbifera [21] = assay: Antifungal activity against Absidia corymbifera 272 after 48 hrs by microdilution method; format: functional, organism-based; settings: Lichtheimia corymbifera, 272, 48 h
Candida albicans [22] = assay: Antifungal activity against Candida albicans ATCC 44859 after 24 hrs by microdilution method; format: functional; settings: ATCC 44859, 24 h
[23] = system: Trichophyton mentagrophytes; assay: Antifungal activity against Trichophyton mentagrophytes 445 after 72 hrs by microdilution method; format: functional, organism-based; settings: Trichophyton mentagrophytes, 445, 72 h
[24] = system: Trichophyton mentagrophytes; assay: Antifungal activity against Trichophyton mentagrophytes 445 after 120 hrs by microdilution method; format: functional, organism-based; settings: Trichophyton mentagrophytes, 445, 120 h
L1210 = assay: Cytostatic activity against mouse L1210 cells at 10 umol/L after 72 hrs by XTT assay; format: ADME, cell-based; settings: l1210, 72 h, 10 µM
HL-60 = assay: Cytostatic activity against human HL60 cells at 10 umol/L after 72 hrs by XTT assay; format: ADME, cell-based; settings: hl-60, 72 h, 10 µM
[25] = Cytostatic activity against human HeLaS3 cells at 10 umol/L after 48 hrs by XTT assay; format: ADME, cell-based; settings: hela s3, 48 h, 10 µM
CCRF-CEM = assay: Cytostatic activity against human CCRF-CEM cells after 72 hrs by XTT assay; format: ADME, cell-based
HT-29 = assay: Cytostatic activity against human HT-29 cells at 10 umol/L after 72 hrs by XTT assay; format: ADME, cell-based; settings: ht-29, 72 h, 10 µM
[26] = Cytostatic activity against human COLO201 cells at 10 umol/L after 72 hrs by XTT assay; format: ADME, cell-based; settings: colo 201, 72 h, 10 µM

Row | SMILES | IC80 (Candida albicans [1]) [µM] | IC80 (Candida albicans [2]) [µM] | IC80 (Candida albicans [3]) [µM] | IC80 (Candida parapsilosis [4]) [µM] | IC80 (Candida parapsilosis [5]) [µM] | IC80 (Pichia kudriavzevii [6]) [µM] | IC80 (Pichia kudriavzevii [7]) [µM] | IC80 (Pichia kudriavzevii [8]) [µM] | IC80 (Pichia kudriavzevii [9]) [µM] | IC80 (Candida tropicalis [10]) [µM] | IC80 (Candida tropicalis [11]) [µM] | IC80 (Nakaseomyces glabratus [12]) [µM] | IC80 (Nakaseomyces glabratus [13]) [µM] | IC80 (Clavispora lusitaniae [14]) [µM] | IC80 (Clavispora lusitaniae [15]) [µM] | IC80 (Trichosporon asahii [16]) [µM] | IC80 (Trichosporon asahii [17]) [µM] | IC80 (Aspergillus fumigatus [18]) [µM] | IC80 (Aspergillus fumigatus [19]) [µM] | IC80 (Lichtheimia corymbifera [20]) [µM] | further results
1 | O=C1C=CC(=O)C1=C/C=C/c1ccccc1 | 1.95 | 15.6 | 15.6 | 3.9 | 7.81 | 3.9 | 7.81 | 15.6 | 15.6 | 7.81 | 15.6 | 15.6 | 31.2 | 7.81 | 15.6 | 7.81 | 15.6 | 31.2 | 31.2 | > 125 | IC80 (Lichtheimia corymbifera [21]): > 125 µM; IC80 (Candida albicans [22]): 1.95 µM; IC80 [23]: 7.81 µM; IC50 [24]: 62.5 µM; Activity (L1210): Non-toxic; Activity (HL-60): Non-toxic; Activity [25]: Non-toxic; IC50 (CCRF-CEM): 4.4 µM; Activity (HT-29): Non-toxic; Activity [26]: Non-toxic
2 | O=C1C=CC(=O)C1=Cc1ccc(Cl)cc1 | 31.2 | 31.2 | 31.2 | 31.2 | 31.2 | 31.2 | 31.2 | 31.2 | 62.5 | 31.2 | 31.2 | 62.5 | 62.5 | 31.2 | 31.2 | 31.2 | 62.5 | 62.5 | 62.5 | > 125 | IC80 (Lichtheimia corymbifera [21]): > 125 µM; IC80 (Candida albicans [22]): 7.81 µM; IC80 [23]: 125 µM; IC50 [24]: > 125 µM; Activity (L1210): Non-toxic; Activity (HL-60): Non-toxic; Activity [25]: Non-toxic; IC50 (CCRF-CEM): 6.1 µM; Activity (HT-29): Non-toxic; Activity [26]: Non-toxic
3 | O=C1C=CC(=O)C1=Cc1ccc(F)cc1 | 15.6 | 15.6 | 31.2 | 15.6 | 31.2 | 15.6 | 31.2 | 15.6 | 31.2 | 15.6 | 31.2 | 31.2 | 31.2 | 15.6 | 31.2 | 31.2 | 62.5 | 31.2 | 62.5 | > 125 | IC80 (Lichtheimia corymbifera [21]): > 125 µM; IC80 (Candida albicans [22]): 7.81 µM; IC80 [23]: 15.6 µM; IC50 [24]: 15.6 µM; Activity (L1210): Non-toxic; Activity (HL-60): Non-toxic; Activity [25]: Non-toxic; IC50 (CCRF-CEM): 1.6 µM; Activity (HT-29): Non-toxic; Activity [26]: Non-toxic
4 | Cc1ccc(C=C2C(=O)C=CC2=O)cc1 | 7.81 | 3.9 | 15.6 | 15.6 | 15.6 | 7.81 | 15.6 | 15.6 | 15.6 | 7.81 | 15.6 | 15.6 | 15.6 | 15.6 | 15.6 | 15.6 | 62.5 | 31.2 | 125 | > 250 | IC80 (Lichtheimia corymbifera [21]): > 250 µM; IC80 (Candida albicans [22]): 3.9 µM; IC80 [23]: 125 µM; IC50 [24]: > 250 µM; Activity (L1210): Non-toxic; Activity (HL-60): Non-toxic; Activity [25]: Non-toxic; IC50 (CCRF-CEM): 2.7 µM; Activity (HT-29): Non-toxic; Activity [26]: Non-toxic
5 | O=C1C=CC(=O)C1=Cc1cccs1 | 7.81 | 15.6 | 15.6 | 15.6 | 15.6 | 7.81 | 15.6 | 7.81 | 7.81 | 15.6 | 15.6 | 7.81 | 15.6 | 15.6 | 15.6 | 15.6 | 31.2 | 15.6 | 15.6 | 500 | IC80 (Lichtheimia corymbifera [21]): > 500 µM; IC80 (Candida albicans [22]): 7.81 µM; IC80 [23]: 15.6 µM; IC50 [24]: 15.6 µM; Activity (L1210): Non-toxic; Activity (HL-60): Non-toxic; Activity [25]: Non-toxic; IC50 (CCRF-CEM): 4.2 µM; Activity (HT-29): Non-toxic; Activity [26]: Non-toxic
6 | COc1ccc(C=C2C(=O)C=CC2=O)cc1 | 7.81 | 7.81 | 7.81 | 7.81 | 15.6 | 3.9 | 3.9 | 3.9 | 7.81 | 7.81 | 7.81 | 7.81 | 7.81 | 7.81 | 31.2 | 7.81 | 31.2 | 15.6 | 31.2 | > 250 | IC80 (Lichtheimia corymbifera [21]): > 250 µM; IC80 (Candida albicans [22]): 3.9 µM; IC80 [23]: 3.9 µM; IC50 [24]: 7.81 µM; Activity (L1210): Non-toxic; Activity (HL-60): Non-toxic; Activity [25]: Non-toxic; IC50 (CCRF-CEM): 3.8 µM; Activity (HT-29): Non-toxic; Activity [26]: Non-toxic
7 | OC(Cn1cncn1)(Cn1cncn1)c1ccc(F)cc1F [FLUCONAZOLE] | 2 | 0.8 | 3.3 | 6.5 | 13 | > 50 | > 50 | > 50 | > 50 | 3 | 5 | 22 | > 50 | 3.3 | 3.3 | 4 | 9 | > 50 | > 50 | > 50 | IC80 (Lichtheimia corymbifera [21]): > 50 µM; IC80 (Candida albicans [22]): 1 µM; IC80 [23]: 17 µM; IC50 [24]: 26 µM
8 | O=C1C=CC(=O)C1=Cc1cccc(Br)c1 | 31.2 | 15.6 | 31.2 | 31.2 | 62.5 | 15.6 | 31.2 | 31.2 | 31.2 | 31.2 | 62.5 | 31.2 | 62.5 | 31.2 | 31.2 | 32.5 | 125 | 125 | 125 | > 125 | IC80 (Lichtheimia corymbifera [21]): > 125 µM; IC80 (Candida albicans [22]): 15.6 µM; IC80 [23]: 15.6 µM; IC50 [24]: 15.6 µM; Activity (L1210): Non-toxic; Activity (HL-60): Non-toxic; Activity [25]: Non-toxic; IC50 (CCRF-CEM): 7.5 µM; Activity (HT-29): Non-toxic; Activity [26]: Non-toxic
9 | O=C1C=CC(=O)C1=Cc1ccccc1 | 1.95 | 3.9 | 7.81 | 3.9 | 3.9 | 3.9 | 3.9 | 3.9 | 7.81 | 3.9 | 3.9 | 7.81 | 7.81 | 7.81 | 15.6 | 1.95 | 3.9 | 15.6 | 31.2 | 250 | IC80 (Lichtheimia corymbifera [21]): 250 µM; IC80 (Candida albicans [22]): 1.95 µM; IC80 [23]: 1.95 µM; IC50 [24]: 3.9 µM; Activity (L1210): Non-toxic; Activity (HL-60): Non-toxic; Activity [25]: Non-toxic; IC50 (CCRF-CEM): 2.6 µM; Activity (HT-29): Non-toxic; Activity [26]: Non-toxic
